Source: ChEMBL document CHEMBL4138170, “Synthesis and biological evaluation of novel alkylated polyamine analogues as potential anticancer agents” (Eur J Med Chem, 2018)

What was measured:
SMMC-7721 = experiment: Antiproliferative activity against human SMMC7721 cells after 48 hrs by MTT assay; assay type: functional, cell-based; settings: SMMC-7721, 48 h
HepG2 = experiment: Antiproliferative activity against human HepG2 cells after 48 hrs by MTT assay; assay type: functional, cell-based; settings: HepG2, 48 h
K562 = experiment: Antiproliferative activity against human K562 cells after 48 hrs by MTT assay; assay type: functional, cell-based; settings: K562, 48 h
HCT-116 = experiment: Antiproliferative activity against human HCT116 cells after 48 hrs by MTT assay; assay type: functional, cell-based; settings: HCT-116, 48 h
H22 [1] = experiment: Antitumor activity against mouse H22 cells implanted in Swiss mouse assessed as tumor growth inhibition at 5 mg/kg/day, iv administered via tail vein for 7 days relative to control; assay type: functional; settings: 168 h, read-out: TGI
H22 [2] = experiment: Antitumor activity against mouse H22 cells implanted in Swiss mouse assessed as inhibition of lung metastasis at 5 mg/kg/day, iv administered via tail vein for 7 days relative to control; assay type: functional; settings: 168 h

| IC50 (SMMC-7721) [µM] | IC50 (HepG2) [µM] | IC50 (K562) [µM] | IC50 (HCT-116) [µM] | SMILES | inhibition in vivo at 5 mg/kg/day (H22 [1]) [%] | inhibition in vivo at 5 mg/kg/day (H22 [2]) [%] |
| --- | --- | --- | --- | --- | --- | --- |
| 12 | 9.68 | 8.55 | 15.1 | O=C1c2cccc3cccc(c23)C(=O)N1CCCCNCCCCNCCCCNC1CC1 | – | – |
| 11.2 | 9.98 | 10.2 | 7.96 | CCCNCCCNCCCNCCCN1C(=O)c2cccc3cccc(c23)C1=O | – | – |
| 6.6 | 7.66 | 7.71 | 5.2 | CCCNCCCNCCCCNCCCN1C(=O)c2cccc3cccc(c23)C1=O | – | – |
| 18.8 | 75.3 | 32.4 | 20.4 | CCCNCCCCNCCCCNCCCCN1C(=O)c2cccc3cccc(c23)C1=O | – | – |

| SMILES | IC50 (SMMC-7721) [µM] | IC50 (HepG2) [µM] | IC50 (K562) [µM] | IC50 (HCT-116) [µM] | inhibition in vivo at 5 mg/kg/day (H22 [1]) [%] | inhibition in vivo at 5 mg/kg/day (H22 [2]) [%] |
| --- | --- | --- | --- | --- | --- | --- |
| CN(C)CCN1C(=O)c2cccc3cc(N)cc(c23)C1=O [AMONAFIDE] | – | – | 10.1 | 6.86 | 45.1 | 41.2 |
